≈ marks a conversion by molar mass, not a printed value.

This test has as its system Helicobacter pylori standard strain ATCC 43526 (NCTC 11916). Kind of test: Antibacterial Test 1: MIC against Helicobacter pylori, agar plate dilution method (anaerobic MIC method). Type of test: cell-based. As to conditions: 72 h, Hp ATCC 43526, agar plate dilution, 37° C., 3 days.
Turning to `CSc1ccc2c(SCc3ccc(N4CCCC4)cc3)ccnc2c1` [Compound 44, 4-[4-(1-Pyrrolidinyl)benzylthio]-7-methylthioquinoline], the MIC (in general, the least concentration at which growth counts as inhibited) amounted to 0.2 µg/mL (≈ 0.546 µM).

`CSc1ccc2c(SCc3ccc(N(CCOC(C)=O)CCOC(C)=O)cc3)ccnc2c1` [Compound 47, 4-[4-[Bis(2-acetoxyethyl)amino]benzylthio]-7-methylthioquinoline] showed an MIC of 0.2 µg/mL (≈ 0.413 µM).

Take `COc1ccc(C(=O)CSc2ccnc3ccccc23)c(OC)c1` [Compound 6, 4-[2-(2,4-Dimethoxyphenyl)-2-oxoethylthio]quinoline]: the lowest concentration to inhibit growth (MIC) was 0.05 µg/mL (≈ 0.147 µM).

`CC(C)(C)NC(=O)N1CCN(c2ccc(C(=O)CSc3ccnc4ccccc34)cc2)CC1` [Compound 85, 4-[2-[4-[4-(N-tert-Butylcarbamoyl)-1-piperazinyl]phenyl]-2-oxoethylthio]quinoline] displayed an MIC of 0.0031 µg/mL (≈ 0.0067 µM). Compared with the last molecule, the MIC is about 16-fold lower.

In turn, `CN(C)S(=O)(=O)N1CCN(c2ccc(C(=O)CSc3ccnc4ccccc34)cc2)CC1` [Compound 84, 4-[2-(4-(4-Dimethylsulfamoyl-1-piperazinyl)phenyl]-2-oxoethylthio]quinoline] gave an MIC of 0.0016 µg/mL (≈ 0.0034 µM).

`CC(C)CN1CCN(c2ccc(C(=O)CSc3ccnc4ccccc34)cc2)CC1` [Compound 29, 4-[2-[4-(4-Isobutyl-1-piperazinyl)phenyl]-2-oxoethylthio]quinoline]: the MIC was determined as 0.0008 µg/mL (≈ 0.00191 µM).

On to `CC(C)(C)C(=O)N1CC=C(c2ccc(C(=O)CSc3ccnc4ccccc34)cc2)CC1` [Compound 74, 4-[2-[4-(1-Pivaloyl-1,2,5,6-tetrahydropyrid-4-yl)phenyl]-2-oxoethylthio]quinoline], for which the MIC turned out to be 0.0008 µg/mL (≈ 0.0018 µM).

`CCCCCCOc1ccc(C(=O)CSc2ccnc3ccccc23)c(OC)c1` [Compound 55, 4-[2-[2-Methoxy-4-hexyloxyphenyl]-2-oxoethylthio]-quinoline] yielded an MIC of 0.0062 µg/mL (≈ 0.0151 µM).

`CSc1ccc2c(SCc3ccc(NCC(=O)c4ccc5ccccc5c4)cc3)ccnc2c1` [Compound 38, 4-[4-(2-β-Naphtyl-2-oxoethylamino)benzylthio]-7-methylthioquinoline] returned an MIC of 0.2 µg/mL (≈ 0.416 µM). This MIC lies about 32-fold higher than the previous one.

Turning to `CSc1ccc2c(SC(C)c3ccc(N(C)C)cc3)ccnc2c1` (centres unmarked) [Compound 33, 4-[1-(4-Dimethylaminophenyl)ethylthio]-7-methylthio-quinoline], the minimal inhibitory concentration (MIC) came to 0.2 µg/mL (≈ 0.564 µM).

Take `C=CCOC(=O)N1CCN(c2ccc(C(=O)CSc3ccnc4ccccc34)cc2)CC1` [Compound 83, 4-[2-[4-(4-Allyloxycarbonyl-1-piperazinyl)phenyl]-2-oxoethylthio]guinoline]: the MIC turned out to be 0.0008 µg/mL (≈ 0.00179 µM).

Turning to `O=C(CSc1ccnc2ccccc12)c1ccc(N2CCN(c3ncccn3)CC2)cc1` [Compound 68, 4-[2-[4-[4-(2-Pyrimidyl)-1-piperazinyl]phenyl]-2-oxoethylthio]quinoline], the MIC was 0.0016 µg/mL (≈ 0.00362 µM).

`CSc1ccc2c(SCc3ccc(N4CCCCC4)cc3)ccnc2c1` [Compound 45, 4-(4-Piperidinobenzylthio)-7-methylthioquinoline]: the MIC stood at 0.2 µg/mL (≈ 0.526 µM).

`CC(C)CN(C)CCN(C)c1ccc(CCSc2ccnc3ccccc23)cc1` [Compound 72, 4-[2-[4-[N-[2-(N-Isobutyl-N-methylamino)ethyl]-N-methylamino]phenyl]ethylthio]quinoline]: the MIC was found to be 0.05 µg/mL (≈ 0.123 µM).

In turn, `CCCCCCCNc1ccc(C(=O)CSc2ccnc3ccccc23)cc1` [Compound 69, 4-[2-[4-(Heptylamino)phenyl]-2-oxoethylthio]quinoline] came in with an MIC of 0.025 µg/mL (≈ 0.0637 µM).

`CC(C)(C)OC(=O)Nc1ccc(C(=O)CSc2ccnc3ccccc23)cc1` [Compound 30, 4-[2-(4-tert-Butoxycarbonylaminophenyl)-2-oxoethylthio]-quinoline] showed an MIC of 0.1 µg/mL (≈ 0.253 µM).

`CC(C)(C)C(=O)N1CCN(c2ccc(C(=O)CSc3ccnc4ccccc34)cc2)CC1` [Compound 52, 4-[2-[4-(4-Pivaloyl-1-piperazinyl)phenyl]-2-oxoethylthio]quinoline] returned an MIC of 0.0008 µg/mL (≈ 0.00179 µM). Compared with the last molecule, the MIC is about 120-fold lower.

Consider `CC(C)(C)OC(=O)N1CCCN(c2ccc(C(=O)CSc3ccnc4ccccc34)cc2)CC1` [Compound 76, 4-[2-[4-(4-tert-Butoxycarbonyl-1-homopiperazinyl)phenyl]-2-oxoethylthio]quinoline], for which the MIC was 0.0062 µg/mL (≈ 0.013 µM).

Consider `CC(C)(C)OC(=O)N1CCN(CCc2ccc(C(=O)CSc3ccnc4ccccc34)cc2)CC1` [Compound 50, 4-[2-[4-[2-(4-tert-Butoxycarbonyl-1-piperazinyl)ethyl]-phenyl]-2-oxoethylthio]quinoline], for which 0.05 µg/mL (≈ 0.102 µM) was the least that counted as inhibitory (MIC).

For `CC(C)CN(C)CC(=O)Nc1ccc(CCSc2ccnc3ccccc23)cc1` [Compound 70, 4-[2-[4-[2-(N-Isobutyl-N-methylamino)acetylamino]-phenyl]ethylthio]quinoline], the lowest concentration to inhibit growth (MIC) was 0.05 µg/mL (≈ 0.123 µM).

As for `CS(=O)(=O)N1CCN(c2ccc(C(=O)CSc3ccnc4ccccc34)cc2)CC1` [Compound 86, 4-[2-[4-(4-Methanesulfonyl-1-piperazinyl)phenyl]-2-oxoethylthio]quinoline], 0.0031 µg/mL (≈ 0.00702 µM) was the least that counted as inhibitory (MIC).

In the case of `CC(C)(C)OC(=O)Nc1ccc(CCSc2ccnc3ccccc23)cc1` [Compound 24, 4-[2-(4-tert-Butoxycarbonylaminophenyl)ethylthio]-quinoline], the minimum inhibitory concentration (MIC) is 0.2 µg/mL (≈ 0.526 µM).

As to `CSc1ccc2c(SCc3ccc(N4CCN(C)CC4)cc3)ccnc2c1` [Compound 46, 4-[4-(4-Methyl-1-piperazinyl)benzylthio]-7-methylthioquinoline], it took 0.1 µg/mL (≈ 0.253 µM) to inhibit growth (MIC).

Take `COc1ccc2c(SCc3ccc(NCC(C)C)cc3)ccnc2c1` [Compound 35, 4-(4-Isobutylaminobenzylthio)-7-methoxyquinoline]: the MIC turned out to be 0.39 µg/mL (≈ 1.11 µM). This MIC lies about 3.9-fold higher than the previous one.

Regarding `COc1ccc(COc2ccc(C(=O)CSc3ccnc4ccccc34)cc2)cc1` [Compound 56, 4-[2-[4-(4-Methoxybenzyloxy)phenyl]-2-oxoethylthio]-quinoline], the MIC was 0.0125 µg/mL (≈ 0.0301 µM).

In turn, `CSc1ccc2c(SCc3ccc(N4CCOCC4)cc3)ccnc2c1` [Compound 43, 4-(4-Morpholinobenzylthio)-7-methylthioquinoline] returned an MIC of 0.1 µg/mL (≈ 0.261 µM).

Molecule `CCNc1ccc(CSc2ccnc3cc(SC)ccc23)cc1` [Compound 36, 4-(4-Ethylaminobenzylthio)-7-methylthioquinoline] gave an MIC of 0.1 µg/mL (≈ 0.294 µM).

The molecule `CSc1ccc2c(SCc3ccc(N(CCO)CCOC(C)=O)cc3)ccnc2c1` [Compound 48, 4-[4-[N-(2-Acetoxyethyl)-2-hydroxyethylamino]benzylthio]-7-methylthioquinoline] yielded an MIC of 0.1 µg/mL (≈ 0.226 µM).

As to `CC(C)CN1CC(=O)N(c2ccc(C(=O)CSc3ccnc4ccccc34)cc2)C1` [Compound 71, 4-[2-[4-(3-Isobutyl-5-oxo-1-imidazolidinyl)phenyl]-2-oxoethylthio]quinoline], the MIC is 0.05 µg/mL (≈ 0.119 µM).

With `COc1cc(C(=O)CSc2ccnc3ccccc23)cc(OC)c1OC` [Compound 17, 4-(2-(3,4,5-Trimethoxyphenyl)-2-oxoethylthio]quinoline], the MIC worked out at 0.05 µg/mL (≈ 0.135 µM).

Take `COc1ccc(COc2ccc(C(=O)CSc3ccnc4ccccc34)cc2OC)cc1` [Compound 58, 4-[2-[3-Methoxy-4-(4-methoxybenzyloxy)phenyl]-2-oxoethylthio]quinoline]: 0.0031 µg/mL (≈ 0.00696 µM) was the least that counted as inhibitory (MIC).

The molecule `CC(C)(C)C(=O)Nc1ccc(C(=O)CSc2ccnc3ccccc23)cc1` [Compound 19, 4-[2-(4-Pivaloylaminophenyl)-2-oxoethylthio]quinoline] showed an MIC of 0.1 µg/mL (≈ 0.264 µM).

With `CC(C)(C)CN1CCN(c2ccc(C(=O)CSc3ccnc4ccccc34)cc2Br)CC1` [Compound 66, 4-[2-[3-Bromo-4-(4-neopentyl-1-piperazinyl)phenyl]-2-oxoethylthio]quinoline], the MIC is 0.0004 µg/mL (≈ 0.00078 µM).

Molecule `CSc1ccc2c(SCc3ccc(N4CCN(C=O)CC4)cc3)ccnc2c1` [Compound 63, 4-[4-(4-Formyl-1-piperazinyl)benzylthio]-7-methylthioquinoline] gave an MIC of 0.1 µg/mL (≈ 0.244 µM).

On to `CC(C)(C)OC(=O)N1CCN(c2ccc(C(O)CSc3ccnc4ccccc34)cc2)CC1` (centres unmarked) [Compound 87, 4-[2-[4-(4-tert-Butoxycarbonyl-1-piperazinyl)phenyl]-2-hydroxyethylthio]quinoline], for which the lowest concentration to inhibit growth (MIC) was 0.0008 µg/mL (≈ 0.00172 µM).

`O=C(CSc1ccnc2ccccc12)c1ccc(-c2ccccc2)cc1` [Compound 4, 4-[2-(p-Biphenyl)-2-oxoethylthio]quinoline] registered an MIC of 0.1 µg/mL (≈ 0.281 µM).

Molecule `CNc1ccc(CSc2ccnc3cc(SC)ccc23)cc1C` [Compound 39, 4-(3-Methyl-4-methylaminobenzylthio)-7-methylthioquinoline] registered an MIC of 0.1 µg/mL (≈ 0.294 µM).

`CC(C)(C)OC(=O)N1CCN(c2ccc(C(=O)CSc3ccnc4ccc(F)cc34)cc2)CC1` [Compound 73, 4-[2-[4-(4-tert-Butoxycarbonyl-1-piperazinyl)phenyl]-2-oxoethylthio]-6-fluoroquinoline] displayed a minimal inhibitory concentration (MIC) of 0.0062 µg/mL (≈ 0.0129 µM).

As to `CCN(CC)C(=S)N1CCN(c2ccc(C(=O)CSc3ccnc4ccccc34)cc2)CC1` [Compound 54, 4-[2-[4-(4-Diethylaminothiocarbonyl-1-piperazinyl)-phenyl]-2-oxoethylthio]quinoline], 0.0016 µg/mL (≈ 0.00334 µM) was the least that counted as inhibitory (MIC). This MIC lies about 3.9-fold lower than the previous one.

Molecule `COc1ccc(Oc2ccc(C(=O)CSc3ccnc4ccccc34)cc2)cc1` [Compound 15, 4-[2-[4-(4-Methoxyphenoxy)phenyl]-2-oxoethylthio]-quinoline] returned an MIC of 0.1 µg/mL (≈ 0.249 µM). Compared with the last molecule, the MIC is about 62-fold higher.

The molecule `COc1cc(C(=O)CSc2ccnc3ccccc23)ccc1OCC1CO1` (centres unmarked) [Compound 57, 4-[2-[3-Methoxy-4-(2,3-epoxypropoxy)phenyl]-2-oxoethylthio]quinoline] gave an MIC of 0.39 µg/mL (≈ 1.02 µM).

`O=C(CSc1ccnc2ccccc12)c1ccc(NCc2ccccc2)c(Br)c1` [Compound 20, 4-[2-(4-Benzylamino-3-bromophenyl)-2-oxoethylthio]-quinoline] came in with an MIC of 0.025 µg/mL (≈ 0.0539 µM).

Turning to `Cl.O=C(CSc1ccnc2ccccc12)c1ccc(N2CCNCC2)cc1` [Compound 51, 4-[2-[4-(1-Piperazinyl)phenyl]-2-oxoethylthio]quinoline hydrochloride], the lowest concentration to inhibit growth (MIC) was 0.2 µg/mL.

With `CC(C)(C)OC(=O)N1CCN(c2ccc(C(=O)CSc3ccnc4ccccc34)cc2Br)CC1` [Compound 14, 4-[2-[3-Bromo-4-(4-tert-butoxycarbonyl-1-piperazinyl)-phenyl]-2-oxoethylthio]quinoline], the MIC stood at 0.0016 µg/mL (≈ 0.00295 µM).

For the origin of these results see patent US6057447A, “Quinoline sulfide derivatives” (Zenyaku Kogyo Kabushiki Kaisha, priority 1996, dated 2000).
